We go through 13 compounds from US11908550B2, “Method for determining different PBDEs derivatives from their response to activities of enoyl-ACP reductase” (Nanjing University, priority 2020, dated 2024).

Entries after “also recorded” stand apart in the source; their conditions may differ.

The target of the test is T1, enoyl-ACP reductase (recombinant FabI) (Escherichia coli, UniProt P0AEK4).
T1 construct: His; made in house; host or cells: E. coli
T1 sequence (P0AEK4 whole entry): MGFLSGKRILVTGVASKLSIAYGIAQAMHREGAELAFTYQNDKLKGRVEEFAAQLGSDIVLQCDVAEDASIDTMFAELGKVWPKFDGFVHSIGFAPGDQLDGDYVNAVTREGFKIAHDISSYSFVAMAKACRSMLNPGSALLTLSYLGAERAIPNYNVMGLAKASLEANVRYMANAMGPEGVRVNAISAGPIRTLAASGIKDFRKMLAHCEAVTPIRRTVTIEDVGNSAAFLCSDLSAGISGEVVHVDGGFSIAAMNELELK
As to the kind of experiment: in vitro binding activity assay (FabI enzyme activity, oxidation rate of NADH to NAD+ at 340 nm). In kind it is biochemical, E. coli. The following applies: PBDEs 0.014-10 μM incubated with 100 nM recombinant FabI on ice for 60 minutes. Here is the method: The in vitro binding activity assay was as follows: overexpression of His-labeled FabI in the E. coli lysate was prepared. When the bacterial optical density (OD600) reached 0.6, the expression was induced overnight with 1 mm IPTG at 16° C. Then, the bacteria were collected and washed once with PBS. The bacteria were lysed in the lysis buffer containing 500 mM NaCl, 10 mm Tris HCl and 0.1% NP-40 (pH=8.5). FabI was purified from the supernatant with Ni-NTA agarose (Qiagen) and centrifuged at 14000 g for 30 min. The resin containing Ni-NTA was transferred to a Poly-Prep column (Bio-Red) and equilibrated twice with washing buffer (50 mm PBS, pH 8.2, 300 mM NaCl and 10 mm imidazole). After incubation with FabI lysate at 4° C. for 30 minutes, the resin was washed twice with a washing buffer, and the FabI protein was eluted with a buffer containing 50 mm PBS, pH 8.2, 300 mM NaCl and 250 mm imidazole. 300 μM butyl coenzyme A was added and followed by adding the mixture of 100 nM recombinant FabI, 400 μM NADH and 40 μM NAD+. The oxidation rate of NADH to NAD+ was measured every 2 minutes with a microplate reader at 340 nm. In order to determine the inhibition ability of PBDEs derivatives to the FabI enzyme activity, PBDEs with different concentrations (0.014-10 μM) were incubated with 100 nM recombinant FabI on ice for 60 minutes, and then the oxidation rate of NADH to NAD+ was determined.
Regarding `Oc1c(Oc2ccc(Br)cc2Br)cc(Br)c(Br)c1Br` [2OHBDE123], the “in vitro measurement of the binding activity” value (“in vitro measurement” for short) is given as “No inhibition; also recorded: No inhibit”.
For the compound `COc1ccc(Oc2ccc(Br)cc2Br)c(Br)c1` [4MeOBDE17], the “in vitro measurement” value was “No inhibition; also recorded: No inhibit”.
In the case of `Oc1cc(Br)c(Oc2ccc(Br)cc2Br)cc1Br` [4OHBDE49] it was “able to inhibit; also recorded: inhibition”; in that of `COc1cc(Oc2ccc(Br)cc2Br)c(Br)cc1Br` [5MeOBDE47], “No inhibition; also recorded: No inhibit”.
For `COc1cc(Br)cc(Br)c1Oc1ccccc1Br` [6MeOBDE17], the “in vitro measurement” value is on record as “No inhibition; also recorded: No inhibit”.
In the case of `COc1cc(Br)cc(Br)c1Oc1ccc(Br)cc1Br` [6MeOBDE47] it was “No inhibition; also recorded: No inhibit”; in that of `COc1cc(Br)c(Br)c(Br)c1Oc1ccc(Br)cc1Br` [6MeOBDE85], “No inhibition; also recorded: No inhibit”.
Consider `COc1c(Br)cc(Br)c(Br)c1Oc1ccc(Br)cc1Br` [6MeOBDE90], for which the “in vitro measurement” value is recorded as “No inhibition; also recorded: No inhibit”.
In the case of `Oc1cc(Br)cc(Br)c1Oc1ccccc1Br` [6OHBDE17] it was “Inhibit”; in that of `Oc1cc(Br)cc(Br)c1Oc1ccc(Br)cc1Br` [6OHBDE47], “Inhibit”; in that of `Oc1c(Br)cc(Br)c(Br)c1Oc1ccc(Br)cc1Br` [6OHBDE90], “Inhibit”.
To `Oc1c(Br)c(Br)c(Br)c(Br)c1Oc1ccc(Br)cc1Br` [6OHBDE137] belongs “Inhibit”; to `Oc1cc(Cl)ccc1Oc1ccc(Cl)cc1Cl` [TCS, Triclosan, reference compound], “Inhibit”.
